Measured values published in ChEMBL document CHEMBL1130110 (J Med Chem, 1997).

Legend:
Glucagon receptor [1] = molecular target: T1, Glucagon receptor (Rattus norvegicus, UniProt P30082); experiment: Effective concentration was determined in cAMP accumulation assay using isolated hepatocytes in the presence rolipram.; assay type: functional, cell-based; settings: hepatocyte
Glucagon receptor [2] = molecular target: T1, Glucagon receptor; experiment: Binding affinity towards Glucagon receptor in rat liver plasma membranes by displacement of 125 I-labelled glucagon; assay type: cell membranes
Glucagon receptor [3] = molecular target: T1, Glucagon receptor; experiment: pA2 value against Glucagon Receptor; settings: read-out: pA2 (converted)

T1 sequence (P30082 whole entry): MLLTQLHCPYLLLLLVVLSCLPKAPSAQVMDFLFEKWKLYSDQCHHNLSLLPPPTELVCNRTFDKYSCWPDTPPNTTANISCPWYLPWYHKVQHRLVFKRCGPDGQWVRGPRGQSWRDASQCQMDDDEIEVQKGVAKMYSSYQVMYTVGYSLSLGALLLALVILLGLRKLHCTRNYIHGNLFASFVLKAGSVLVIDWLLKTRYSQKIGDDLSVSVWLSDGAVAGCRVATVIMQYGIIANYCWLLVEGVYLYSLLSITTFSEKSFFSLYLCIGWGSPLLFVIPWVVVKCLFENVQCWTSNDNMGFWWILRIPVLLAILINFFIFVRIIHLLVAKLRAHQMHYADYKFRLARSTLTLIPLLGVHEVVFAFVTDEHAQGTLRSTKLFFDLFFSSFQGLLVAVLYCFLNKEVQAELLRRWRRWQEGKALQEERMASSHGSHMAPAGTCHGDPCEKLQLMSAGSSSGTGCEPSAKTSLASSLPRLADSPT

How did the EC50 (Glucagon receptor [1]) turn out when `CSCC[C@H](NC(=O)[C@H](CC(C)C)NC(=O)[C@H](Cc1c[nH]c2ccccc12)NC(=O)[C@H](CCC(N)=O)NC(=O)[C@@H](NC(=O)[C@H](Cc1ccccc1)NC(=O)[C@H](CC(=O)O)NC(=O)[C@H](CCC(N)=O)NC(=O)[C@H](C)NC(=O)[C@H](CCCN=C(N)N)NC(=O)[C@H](CCCN=C(N)N)NC(=O)[C@H](CO)NC(=O)[C@H](CC(=O)O)NC(=O)[C@H](CC(C)C)NC(=O)[C@H](Cc1ccc(O)cc1)NC(=O)[C@H](CCCCN)NC(=O)[C@H](CO)NC(=O)[C@H](Cc1ccc(O)cc1)NC(=O)[C@H](CC(=O)O)NC(=O)[C@H](CO)NC(=O)[C@@H](NC(=O)[C@@H](NC(=O)CNC(=O)[C@H](CCC(N)=O)NC(=O)[C@@H](N)CO)[C@@H](C)O)[C@@H](C)O)C(C)C)C(=O)N[C@@H](CC(N)=O)C(=O)N[C@H](C(=O)O)[C@@H](C)O` was run?
Its EC50 is “Not Active”.

`CSCC[C@H](NC(=O)[C@H](CC(C)C)NC(=O)[C@H](Cc1c[nH]c2ccccc12)NC(=O)[C@H](CCC(N)=O)NC(=O)[C@@H](NC(=O)[C@H](Cc1ccccc1)NC(=O)[C@H](CC(=O)O)NC(=O)[C@H](CCC(N)=O)NC(=O)[C@H](C)NC(=O)[C@H](CCCNC(=N)N)NC(=O)[C@H](CCCNC(=N)N)NC(=O)[C@H](CO)NC(=O)[C@H](CC(=O)O)NC(=O)[C@H](CC(C)C)NC(=O)[C@H](Cc1ccc(O)cc1)NC(=O)[C@H](CCCCN)NC(=O)[C@H](CO)NC(=O)[C@H](Cc1ccc(O)cc1)NC(=O)[C@H](CCC(=O)O)NC(=O)[C@H](CO)NC(=O)[C@@H](NC(=O)[C@H](CC(=O)O)NC(=O)[C@@H](NC(=O)CNC(=O)[C@H](CCC(N)=O)NC(=O)[C@@H](N)CO)[C@@H](C)O)[C@@H](C)O)C(C)C)C(=O)N[C@@H](CC(N)=O)C(=O)N[C@H](C(N)=O)[C@@H](C)O` was tested. Which IC50 (Glucagon receptor [2]) did it give?
The IC50 was 2000 nM.

And the Kb (Glucagon receptor [3])?
The Kb was 501 nM.

Which results are given for `CSCC[C@H](NC(=O)[C@H](CC(C)C)NC(=O)[C@H](Cc1c[nH]c2ccccc12)NC(=O)[C@H](CCC(N)=O)NC(=O)[C@@H](NC(=O)[C@H](Cc1ccccc1)NC(=O)[C@H](CC(=O)O)NC(=O)[C@H](CCC(N)=O)NC(=O)[C@H](C)NC(=O)[C@H](CCCN=C(N)N)NC(=O)[C@H](CCCN=C(N)N)NC(=O)[C@H](CO)NC(=O)[C@H](CC(=O)O)NC(=O)[C@H](CC(C)C)NC(=O)[C@H](Cc1ccc(O)cc1)NC(=O)[C@H](CCCCN)NC(=O)[C@H](CO)NC(=O)[C@H](Cc1ccc(O)cc1)NC(=O)[C@H](CCC(=O)O)NC(=O)[C@H](CO)NC(=O)[C@@H](NC(=O)[C@H](Cc1ccccc1)NC(=O)[C@@H](NC(=O)[C@H](CCC(N)=O)NC(=O)[C@@H](N)CO)[C@@H](C)O)[C@@H](C)O)C(C)C)C(=O)N[C@@H](CC(N)=O)C(=O)N[C@H](C(N)=O)[C@@H](C)O`?
IC50 (Glucagon receptor [2]): 52 nM; Kb (Glucagon receptor [3]): 891 nM

How did the IC50 (Glucagon receptor [2]) turn out when H-HSQGTTSDYSKYLDSRRAQDFVQWLMNT-OH was run?
Its IC50 is 500 nM.

What about the Kb (Glucagon receptor [3]) of the same molecule?
Its Kb is 562 nM.

Which IC50 (Glucagon receptor [2]) does the source give for `CSCC[C@H](NC(=O)[C@H](CC(C)C)NC(=O)[C@H](Cc1c[nH]c2ccccc12)NC(=O)[C@H](CCC(N)=O)NC(=O)[C@@H](NC(=O)[C@H](Cc1ccccc1)NC(=O)[C@H](CC(=O)O)NC(=O)[C@H](CCC(N)=O)NC(=O)[C@H](C)NC(=O)[C@H](CCCN=C(N)N)NC(=O)[C@H](CCCN=C(N)N)NC(=O)[C@H](CO)NC(=O)[C@H](CC(=O)O)NC(=O)[C@H](CC(C)C)NC(=O)[C@H](Cc1ccc(O)cc1)NC(=O)[C@H](CCCCN)NC(=O)[C@H](CO)NC(=O)[C@H](Cc1ccc(O)cc1)NC(=O)[C@H](CCC(=O)O)NC(=O)[C@H](CO)NC(=O)[C@@H](NC(=O)[C@@H](Cc1ccccc1)NC(=O)[C@@H](NC(=O)CNC(=O)[C@H](CCC(N)=O)NC(=O)[C@@H](N)CO)[C@@H](C)O)[C@@H](C)O)C(C)C)C(=O)N[C@@H](CC(N)=O)C(=O)N[C@H](C(N)=O)[C@@H](C)O` here?
Its IC50 is 100 nM.

What about the Kb (Glucagon receptor [3]) of the same molecule?
Its Kb is 501 nM.
